Data on 49 compounds can be found in patent US9296748B2, “Pyridinones” (Boehringer Ingelheim International GmbH, priority 2013, dated 2016).

The experiment deals with BRD4-BD1 (Homo sapiens (Human), UniProt O60885). The experiment in a line: BRD4-H4 Tetraacetylated Peptide Inhibition AlphaScreen. The class given is binding. The note with it: GST-BRD4-BD1 (aa 44-168), biotinylated Acetyl-Histone H4 peptide. As for the experimental part: Compounds are diluted in serial dilution 1:5 in assay buffer from 10 mM stock in DMSO (100 μM start concentration) in white OptiPlate-384 (PerkinElmer). […] Subsequently, 6 μl of premixed AlphaLISA Glutathione Acceptor Beads and AlphaScreen Streptavidin Donor Beads from PerkinElmer (in assay buffer at a concentration of 10 μg/ml each) are added and the samples are incubated for 30 min at RT in the dark (shaking 300 rpm). Afterwards, the signal is measured in a PerkinElmer Envision HTS Multilabel Reader using the AlphaScreen protocol from PerkinElmer. […] Negative control values are entered as low basis value when using the software GraphPad Prism for calculations. Furthermore, a positive control (probe molecule JQ1+ with protein/peptide mix) is pipetted. Determination of IC50 values are carried out using GraphPad Prism 3.03 software (or updates thereof).
(Alpha assays give light when donor and acceptor beads are brought close together.)
Turning to `Cc1cc(-c2nc3ccc(N)cc3n2Cc2ccccc2)cn(C)c1=O` [Example I-9, 5-(6-Amino-1-benzyl-1H-benzoimidazol-2-yl)-1,3-dimethyl-1H-pyridin-2-one], the IC50 (as a rule, the point on the concentration scale where inhibition reaches its midpoint) was found to be 58 nM.

For the compound `Cc1cc(-c2nc3cnc(N4CCOCC4)cc3n2Cc2ccccn2)cn(C)c1=O` [II-2], the IC50 came out at 54 nM. As to `Cc1cc(-c2nc3cnc(C(C)C)cc3n2[C@@H](C)c2ccccn2)cn(C)c1=O` [II-33], 169 nM corresponded to half-maximal inhibition (IC50). `Cc1cc(-c2nc3ccc(C4CN(C)CCO4)cc3n2[C@@H](C)c2ccccc2)nn(C)c1=O` (stereo partly shown) [Example I-33]: half-maximal inhibition (IC50) was put at 47 nM.

`CCn1cc(-c2nc3cnc(N4CCOCC4)cc3n2Cc2ccccc2)cc(C)c1=O` [II-6] gave an IC50 of 163 nM. `Cc1cc(-c2nc3ccc(OC(C)C)nc3n2[C@@H](C)c2ccccc2)nn(C)c1=O` [III-5] had an IC50 of 117 nM.

`Cc1cc(-c2nc3cnc(OCC4CC4)cc3n2C(C)c2ccccn2)cn(C)c1=O` (racemic) [II-21, 5-[6-Cyclopropylmethoxy-1-(1-pyridin-2-yl-ethyl)-1H-imidazo[4,5-c]pyridin-2-yl]-1,3-dimethyl-1H-pyridin-2-one] yielded an IC50 of 42 nM.

`CNc1cc(-c2nc3ccccc3n2Cc2ccccc2)cn(C)c1=O` [VI-1, 5-(1-benzyl-1H-1,3-benzodiazol-2-yl)-1-methyl-3-(methylamino)-1,2-dihydropyridin-2-one] yielded an IC50 of 136 nM. Compared with the last compound, the IC50 is about 3.2-fold higher. Under `Cc1cc(-c2nc3ccc(N4CCN(C)CC4)cc3n2Cc2ccccc2)cn(C)c1=O` [Example I-1, 5-[1-Benzyl-6-(4-methylpiperazin-1-yl)-1H-1,3-benzodiazol-2-yl]-1,3-dimethyl-1,2-dihydropyridin-2-one] stands 12 nM; under `Cc1cc(-c2nc3cnc(OC(C)C)cc3n2[C@@H](C)c2ccccn2)cn(C)c1=O` [II-38], 205 nM; under `Cc1cc(-c2nc3cnc(N4CCOCC4)nc3n2Cc2ccccc2)cn(C)c1=O` [IV-14], 50 nM. The compound `Cc1cc(-c2nc3ccc(N4CCOCC4)cc3n2Cc2ccccc2)cn(C)c1=O` [Example I-6] gave an IC50 of 19 nM. The compound `Cc1cc(-c2nc3ccncc3n2Cc2ccccc2)cn(C)c1=O` [IV-4] showed an IC50 of 60 nM. `Cc1cc(-c2nc3cnc(N4CCOC[C@@H]4C)cc3n2C(C)CC2CC2)cn(C)c1=O` (stereo partly shown) [II-43]: the IC50 came to 50 nM. This IC50 and that of the compound before are within 1.5-fold of each other.

The compound `COc1ccc2nc(-c3cc(C)c(=O)n(C)c3)n(Cc3ccccc3)c2c1` [Example I-22] registered an IC50 of 44 nM. This IC50 and that of the compound before are within 1.5-fold of each other. Under `CCn1cc(-c2nc3cnc(N4CCN(C)CC4)cc3n2Cc2ccccc2)cc(C)c1=O` [II-4] stands 55 nM. Under `Cc1cc(-c2nc3cnc(N)cc3n2Cc2ccccc2)cn(C)c1=O` [II-16, 5-(6-Amino-1-benzyl-1H-imidazo[4,5-c]pyridin-2-yl)-1,3-dimethyl-1H-pyridin-2-one] stands 68 nM.

On to `Cc1cc(-c2nc3cc(Cl)c(Cl)cc3n2Cc2ccc(Cl)c(Cl)c2)cn(C)c1=O` [IV-13], for which the IC50 was found to be 4810 nM.

On to `Cc1cc(-c2nc3ccc(C4CCN(C)C(=O)C4)cc3n2[C@@H](C)c2ccccc2)nn(C)c1=O` (stereo partly shown) [Example I-38], for which the IC50 is 32 nM. `Cc1cc(-c2nc3cnc(-n4ccnc4)cc3n2Cc2ccccc2)cn(C)c1=O` [II-13, 5-(1-Benzyl-6-imidazol-1-yl-1H-imidazo[4,5-c]pyridin-2-yl)-1,3-dimethyl-1H-pyridin-2-one] returned an IC50 of 102 nM. Compound `Cc1cc(-c2nc3cnc(N4CCOCC4)cc3n2Cc2cccnc2)cn(C)c1=O` [II-20] displayed an IC50 of 33 nM. This IC50 is about 3.1-fold lower than that of the compound before. Take `Cc1cc(-c2nc3cnc(N4CCOCC4)cc3n2C(C)c2ccccn2)cn(C)c1=O` (stereo not shown) [II-37]: the IC50 turned out to be 172 nM. This IC50 is about 5.2-fold higher than that of the compound before. As to `COC[C@H](C)n1c(-c2cc(C)c(=O)n(C)c2)nc2ccc(C3CCOCC3)cc21` [Example I-26], 96 nM corresponded to half-maximal inhibition (IC50). This IC50 lies about 1.8-fold lower than the previous one. As to `CCOc1cc(=O)n(C)cc1-c1nc2cnc(C3CCOCC3)cc2n1[C@@H](C)c1ccccc1` [II-44], the IC50 was determined as 188 nM.

`Cc1cc(-c2nc3cnccc3n2Cc2ccc(F)c(F)c2)cn(C)c1=O` [II-27] had an IC50 of 166 nM.

With `Cc1cc(-c2nc3ccc(C4CN(C)CCO4)cc3n2[C@@H](C)c2ccccc2)cn(C)c1=O` (stereo partly shown) [Example I-34], the IC50 worked out at 49 nM. On to `CN1CCN(c2ccc3nc(-c4ccc(=O)n(C)c4)n(Cc4ccccc4)c3n2)CC1` [III-1, 5-[3-Benzyl-5-(4-methyl-piperazin-1-yl)-3H-imidazo[4,5-b]pyridin-2-yl]-1-methyl-1H-pyridin-2-one], for which the IC50 was found to be 697 nM. This IC50 is about 14-fold higher than that of the compound before. Under `Cc1cc(-c2nc3ccccc3n2Cc2ccccc2)cn(C)c1=O` [Example I-13] stands 68 nM; under `CN1CCN(c2ccc3nc(-c4ccc(=O)n(C)n4)n(Cc4ccccc4)c3c2)CC1` [Example I-16], 192 nM. For the compound `Cc1nc(-c2nc3cnc(N4CCOCC4)cc3n2Cc2ccccc2)cn(C)c1=O` [II-12], the IC50 came out at 49 nM. Take `CN1CCN(c2ccc3nc(-c4ccc(=O)n(C)c4)n(Cc4ccccc4)c3c2)CC1` [Example I-5]: 547 nM corresponded to half-maximal inhibition (IC50). `Cc1cnc2c(c1)nc(-c1cc(C)c(=O)n(C)c1)n2Cc1ccccc1` [IV-8] registered an IC50 of 70 nM. `Cc1cc(-c2nc3ccc(OC4CCN(C)CC4)nc3n2C(C)c2ccccn2)cn(C)c1=O` (stereo not shown) [III-9] registered an IC50 of 217 nM. On to `Cc1cc(-c2nc3ccc(C4(C(F)(F)F)CC4)cc3n2[C@@H](C)c2ccccc2)cn(C)c1=O` [Example I-37], for which 103 nM corresponded to half-maximal inhibition (IC50). To `Cc1cc(-c2nc3ccc(OC(C)C)nc3n2C(C)c2ccccn2)cn(C)c1=O` (stereo not shown) [III-7] belongs 220 nM; to `Cc1cc(-c2nc3cnc(C4=CCOCC4)cc3n2C(C)c2ccccn2)cn(C)c1=O` (stereo not shown) [II-35], 211 nM. Take `Cc1cc(-c2nc3cc(N)cnc3n2Cc2ccccc2)cn(C)c1=O` [IV-12]: half-maximal inhibition (IC50) required 38 nM. This IC50 lies about 5.6-fold lower than the previous one. The compound `Cc1cc(-c2nc3cnc(N4CCN(C)CC4)cc3n2Cc2ccccc2)nn(C)c1=O` [II-5] gave an IC50 of 12 nM. This IC50 lies about 3.2-fold lower than the previous one. `Cc1cc(-c2nc3cccc(C)c3n2Cc2ccccn2)cn(C)c1=O` [IV-10] had an IC50 of 109 nM. In turn, `Cc1cc(-c2nc3ccc(F)cc3n2Cc2ccccc2)cn(C)c1=O` [Example I-12, 5-(1-Benzyl-6-fluoro-1H-benzoimidazol-2-yl)-1,3-dimethyl-1H-pyridin-2-one] registered an IC50 of 18 nM. `Cc1cc(-c2nc3cnc(N4CCOC[C@@H]4C)nc3n2[C@@H](C)c2ccccc2)cn(C)c1=O` [IV-11] gave an IC50 of 12 nM. Against the preceding compound, the IC50 is about 1.5-fold lower. Compound `Cc1cc(-c2nc3cnc(N4CCOC[C@@H]4C)cc3n2Cc2ccccn2)cn(C)c1=O` [II-17] had a half-inhibitory concentration (IC50) of 160 nM. This IC50 lies about 13-fold higher than the previous one. For `Cc1cc(-c2nc3ccc(N4CCN(C)CC4)cc3n2Cc2ccccc2)nn(C)c1=O` [Example I-11], the IC50 amounted to 12 nM. Turning to `Cc1cc(-c2nc3ccc(C(=O)N(C)C)cc3n2Cc2ccccc2)cn(C)c1=O` [Example I-24], half-maximal inhibition (IC50) was put at 128 nM. This IC50 lies about 11-fold higher than the previous one. Under `Cn1cc(-c2nc3ccc(N4CCOCC4)cc3n2Cc2ccccc2)cc(N)c1=O` [Example V-4] stands 133 nM; under `Cc1cc(-c2nc3cnc(N4CCN(C)CC4)cc3n2C(C)c2ccccn2)cn(C)c1=O` (stereo not shown) [II-22], 34 nM. Regarding `Cn1cc(-c2nc3cccnc3n2Cc2ccccc2)ccc1=O` [III-2], 1780 nM corresponded to half-maximal inhibition (IC50).

`CC1CC(=O)NN=C1c1ccc2c(c1)nc(-c1ccc(=O)n(C)c1)n2Cc1ccccc1` (stereo not shown) [IV-2] had an IC50 of 218 nM. Regarding `Cc1cc(-c2nc3ncccc3n2Cc2ccccc2)cn(C)c1=O` [IV-1], the midpoint of inhibition, the IC50, lay at 313 nM.
